# Laboratory results from US20130309380A1, “METHODS FOR PRESERVING FRESH PRODUCE” (NatureSeal, Inc., priority 2003, published 2013).
# Columns and labels:
# Red Delicious apples [1] = experiment: Hardness of sliced Red Delicious apples measured with QTS25
# Description: (§1) The firmness or hardness of the fruit is the force required for a probe to penetrate the fruit a given distance into the fruit. The firmness is determined using a Quality and Test System 25 and TA 40 probe from Stevens Company. The TA 40 probe a black acetate, 4.5 mm diameter, 20 mm long rod probe having a flat end. The following settings were employed in the QTS system: the test type is a compression test of one cycle, 0 second hold time, 0 second recovery, 5 g trigger point, 30 mm/min test speed, target unit distance, and a target value of 3 mm. The apple pieces were 1 cm thick.
# (§2) Whole Red Delicious apples were rinsed with tap water, sanitized with a sodium hypochlorite solution containing 100 ppm chlorine, then cored and sliced. The apple slices were immersed in water for 0.5 to 2 minutes. Then the apple slices were dipped into produce preservative solution containing 4% ascorbic acid and 1.59% K2CO3 having a pH 5.69 for 1 minute. The slices were removed from the solution and drained for 1-2 minutes, sealed in polyethylene bags, and stored at 2-5° C. For controls, sliced apples either not treated or were dipped into either 4% ascorbic acid with 0.66% NaOH to adjust the pH to 4.45. For comparison, sliced apples were dipped into a solution containing 4% ascorbic acid and 1.22% Na2CO3 and having a pH of 5.58.
# The apples were evaluated and scored on a scale of 0-10 at time intervals. A score of 10 means that the fruit's color and appearance is as good as fresh cut fruit. A score of 7 is the minimum acceptable appearance. Hardness was measured with QTS25.
# Bartlett pears = experiment: Hardness of sliced Bartlett pears
# Description: as §1, §2
# Bartlett pears were preserved with the fresh produce preservative as in Example 1a, with preservative solution that contained 4% ascorbic acid and 1.59% K2-CO3. For comparison, pears were treated with a comparative solution that contained 4% ascorbic acid and 1.22% Na2CO3.
# Bramley apples = experiment: Evaluation of sliced Bramley apples: appearance by visual inspection, firmness by bending
# Description: The firmness of the produce in Example 11a were evaluated by bending produce samples. Appearance was evaluated by visual inspection. The moisture was evaluated by measuring the amount of water the produce released.
# Whole Bramley apples free from blemishes or bruises, were rinsed with water, sanitized with a sodium hypochlorite solution having 100 parts per million available chlorine, for two minutes, then peeled, cored, and sliced. The sliced apples were dipped into a fresh produce preservative solution that contained 5.12% strontium ascorbate; the fresh produce preservative solution contained 4.12% ascorbic acid and 1.79% […], for about 30 to 60 seconds. The apples were then drained in a colander for one minute. The apple slices and the colander were placed in 500 micron plastic bags from SunSet Packaging, stored at 4° C. and evaluated several times over a 15 day period. Water which collected in the plastic bag was removed and weighed.
# For comparison, similarly prepared apple slices were placed in one of several solutions that contained either: 4.3% ascorbic acid and 1.13% hydrated MgCO3, specifically 4MgCO3.Mg(OH)25H2O or a 5.0% w/w aqueous solution of calcium ascorbate dihydrate, having a pH of 7.2; or a 5.3% w/w solution, of 4.12% ascorbic acid and 1.17% calcium carbonate,; or 6% ascorbic acid having a pH of 2.3; or 48 g ascorbic acid, 48 g citric acid, 16 g CaCl2 and 48 g NaCl in 800 g water, with a pH of 1.2; or 6% w/w citric acid and 6% w/w ascorbic acid; or 4.64% sodium ascorbate having 4.13% ascorbic acid and 1.18% NaCo3.
# Bramley apples were preserved with the fresh produce preservative as in Example 11a except that the preservative solution contained lithium ascorbate. The lithium ascorbate solution was prepared by adding 7.35 grams of lithium carbonate and 35 grams ascorbic acid to 800 grams water.
# For comparison, apple slices were placed in one of several comparative solutions: a 5.0% w/w aqueous solution of calcium ascorbate dihydrate containing 42.5 grams of calcium ascorbate dihydrate and 800 grams water with a pH of 7; a 5.3% w/w solution of calcium ascorbate containing 44.94 grams of mixture of 9.95 grams calcium carbonate and 35 grams ascorbic acid in 800 grams water with a pH of 5.5; a comparative solution, containing 48 g ascorbic acid, 48 g citric acid, 16 g CaCl2, 48 g NaCl and 800 g water with a pH of 1.2; a comparative solution of sodium ascorbate containing 28.45 grams of sodium carbonate 35 grams ascorbic acid, 800 grams water having a pH of 6.8; a comparative solution of calcium ascorbate containing 8.75 grams of calcium carbonate, 35 grams ascorbic acid, and to 800 grams water; a comparative solution of calcium ascorbate containing 9.95 grams of calcium carbonate, 35 grams ascorbic acid, and 765 grams water; a comparative solution of magnesium ascorbate containing 9.66 grams of hydrated magnesium carbonate 4MgCO3.Mg(OH)25H2O, 35 grams ascorbic acid, 765 grams water, having a pH of 6.4; and a comparative solution of zinc ascorbate containing 35 grams ascorbic acid, 12.74 grams zinc carbonate and 765 grams water, with a pH of 5.5. The apple slices were evaluated on day five.
# Red Delicious apples [2] = experiment: Evaluation of sliced Red Delicious apples (Examples 14 and 15, scores)
# Description: The texture, flavor, and moistness of the fruit were evaluated by tasting fruit samples. The color and/or appearance was also evaluated by visual inspection. […] Then the apple slices were dipped for 1 minute into the following solutions: 3% ascorbic acid and 0.8% NH4Cl. For comparision, untreated slices were used as well as apple slices treated with 3% ascorbic acid or 2% ascorbic acid. The apples were removed, drained for 1-2 minutes, sealed in 2 mil, polyethylene bags, and stored at 2-5° C. Red Delicious apples were preserved with the fresh produce preservative as in Example 14a, except that the preservative solution contained 3.0% ascorbic acid and 0.8% CuSO4.
compound,measurement,setting,value
"O=C1O[C@H]([C@@H](O)CO)C(O)=C1O [Ascorbic Acid, ascorbic acid]",Hardness,Red Delicious apples [1]; 0 hour,2083
same,Hardness,Red Delicious apples [1]; 1 week at 2-5° C.,1578
same,Hardness,Red Delicious apples [1]; 2 week at 2-5° C.,1072
same,Hardness,Bartlett pears; 0 hour,2215 g
same,Hardness,Bartlett pears; 1 week,315 g
same,Hardness,Bartlett pears; 2 weeks,79 g
same,Texture,Bramley apples; 28 hr at 4° C.,Firm
same,Texture,Bramley apples; 52 hr at 4° C.,Firm
same,Appearance (visual inspection),Bramley apples; 191 hr at 4° C.,brown
same,Texture,Bramley apples; 191 hr at 4° C.,soft
same,color/appearance score,"Red Delicious apples [2]; 1 hour, scale to 10 (Table 15)",10
same,color/appearance score,"Red Delicious apples [2]; 1 hour, scale to 10 (Table 16)",10
same,color/appearance score,"Red Delicious apples [2]; 24 hours, scale to 10 (Table 15), listed as 2% Ascorbic Acid Control, 2% Ascorbic Acid control dip",5.33
same,color/appearance score,"Red Delicious apples [2]; 24 hours, scale to 10 (Table 15), listed as 3% Ascorbic Acid Control, 3% Ascorbic Acid control dip",6
same,color/appearance score,"Red Delicious apples [2]; 24 hours, scale to 10 (Table 16), listed as 2% Ascorbic Acid Control, 2% Ascorbic Acid control",5
same,color/appearance score,"Red Delicious apples [2]; 24 hours, scale to 10 (Table 16), listed as 3% Ascorbic Acid Control, 3% Ascorbic Acid control",6
same,color/appearance score,"Red Delicious apples [2]; Day 3, scale to 10 (Table 15), listed as 2% Ascorbic Acid Control, 2% Ascorbic Acid control dip",5
same,color/appearance score,"Red Delicious apples [2]; Day 3, scale to 10 (Table 15), listed as 3% Ascorbic Acid Control, 3% Ascorbic Acid control dip",6
same,color/appearance score,"Red Delicious apples [2]; Day 3, scale to 10 (Table 16), listed as 2% Ascorbic Acid Control, 2% Ascorbic Acid control",5
same,color/appearance score,"Red Delicious apples [2]; Day 3, scale to 10 (Table 16), listed as 3% Ascorbic Acid Control, 3% Ascorbic Acid control",6
same,color/appearance score,"Red Delicious apples [2]; Day 4, scale to 10 (Table 15), listed as 2% Ascorbic Acid Control, 2% Ascorbic Acid control dip",6
same,color/appearance score,"Red Delicious apples [2]; Day 4, scale to 10 (Table 15), listed as 3% Ascorbic Acid Control, 3% Ascorbic Acid control dip",4
same,color/appearance score,"Red Delicious apples [2]; Day 5, scale to 10 (Table 15), listed as 2% Ascorbic Acid Control, 2% Ascorbic Acid control dip",6
same,color/appearance score,"Red Delicious apples [2]; Day 5, scale to 10 (Table 15), listed as 3% Ascorbic Acid Control, 3% Ascorbic Acid control dip",4
same,color/appearance score,"Red Delicious apples [2]; Day 6, scale to 10 (Table 15), listed as 2% Ascorbic Acid Control, 2% Ascorbic Acid control dip",6
same,color/appearance score,"Red Delicious apples [2]; Day 6, scale to 10 (Table 15), listed as 3% Ascorbic Acid Control, 3% Ascorbic Acid control dip",4
